# Measurements as given in patent publication US10858335B2 (Rigel Pharmaceuticals, Inc., priority 2014, dated 2020).
# pIC50: −log10 of the molar value.
# Tested on: GDF8 signaling (p-SMAD-3 (Ser423/425))
# Experiment: AlphaScreen SureFire SMAD3 (p-Ser423/425) assay, GDF8-stimulated cells (GDF pSMAD)
# Assay type: cell-based
# Conditions: Mus musculus, MPC-11, GDF8-stimulated pSMAD3, MPC11; tested as the salt form given; read-out: GDF pSMAD (MPC11) (μM), inhibition of GDF8 signaling
row,IC50,SMILES
1,0.129 µM,Fc1cc(F)c(F)c(-c2ncccc2-c2ccc3ncsc3c2)c1 [compound 1055]
2,2.77 µM,"Nc1ncnc2ccc(-c3cccnc3-c3cc(O)ccc3Cl)cc12 [compound 1016, 3-(3-(4-aminoquinazolin-6-yl)pyridin-2-yl)-4-chlorophenol]"

# Same assay, conditions: Mus musculus, MPC-11, MPC11; GDF8-stimulated; p-SMAD3 AlphaScreen; read-out: GDF pSMAD (MPC11) (inhibition of GDF8 signaling)
row,pIC50,SMILES
1,5.43,COc1cnc(-c2cccc(C(F)(F)F)c2)c(-c2ccn3ncnc3c2)c1 [compound 859]
2,6.72,"Fc1ccc(-c2ncccc2-c2ccc3nccn3n2)cc1Cl [compound 935, 6-(2-(3-Chloro-4-fluorophenyl)pyridin-3-yl)imidazo[1,2-b]pyridazine]"
3,6.36,"Clc1cccc(-c2ncccc2-c2ccc3ncnn3n2)c1 [compound 954, 6-(2-(3-Chlorophenyl)pyridin-3-yl)-[1,2,4]triazolo[1,5-b]pyridazine]"
4,6.68,"Cc1cc(-c2ncccc2-c2ccn3ncc(C(=O)NCCN4CCOCC4)c3c2)ccc1F [compound 674, 5-(2-(4-Fluoro-3-methylphenyl)pyridin-3-yl)-N-(2-morpholinoethyl)pyrazolo[1,5-a]pyridine-3-carboxamide]"
5,5.73,"COc1cnc(-c2cc(Cl)c(F)cc2F)c(-c2ccn3ncnc3c2)c1 [compound 857, 7-(2-(5-Chloro-2,4-difluorophenyl)-5-methoxypyridin-3-yl)-[1,2,4]triazolo[1,5-a]pyridine]"
6,6.05,"O=C(NCCCN1CCCC1=O)c1cnc2ccc(-c3cccnc3-c3ccc(F)c(Cl)c3)cn12 [compound 727, 6-(2-(3-Chloro-4-fluorophenyl)pyridin-3-yl)-N-(3-(2-oxopyrrolidin-1-yl)propyl)imidazo[1,2-a]pyridine-3-carboxamide]"
7,5.82,"Cn1c(=O)cnc2ccc(-c3cccnc3-c3cc(Cl)ccc3F)cc21 [compound 889, 7-(2-(5-Chloro-2-fluorophenyl)pyridin-3-yl)-1-methylquinoxalin-2(1H)-one]"
8,4.83,"Nc1noc2ccc(-c3cccnc3-c3cccc(Cl)c3)cc12 [compound 799, 5-(2-(3-Chlorophenyl)pyridin-3-yl)benzo[d]isoxazol-3-amine]"
9,5.59,"COc1cc(Nc2nccc(-c3cccnc3-c3ccc(F)c(C)c3)n2)cc(OC)c1OC [compound 903, 4-(2-(4-Fluoro-3-methylphenyl)pyridin-3-yl)-N-(3,4,5-trimethoxyphenyl)pyrimidin-2-amine]"
10,5.84,"Cn1cnc2ccc(-c3cccnc3-c3ccc(F)c(Cl)c3F)cc21 [compound 967, 6-(2-(3-Chloro-2,4-difluorophenyl)pyridin-3-yl)-1-methyl-1H-benzo[d]imidazole]"
11,6.50,"Fc1cc(F)c(-c2ncccc2-c2ccc3ncsc3c2)cc1Cl [compound 718, 6-(2-(5-Chloro-2,4-difluorophenyl)pyridin-3-yl)benzo[d]thiazole]"
12,5.93,"CC(=O)c1cnc2ccc(-c3cccnc3-c3ccc(F)c(Cl)c3)cn12 [compound 762, 1-(6-(2-(3-Chloro-4-fluorophenyl)pyridin-3-yl)imidazo[1,2-a]pyridin-3-yl)ethan-1-one]"

# Continued, molecule first:
row,SMILES,pIC50
1,"Cc1ccc(-c2ncccc2-c2ccc3ncnc(N)c3c2)cc1F [compound 459, 6-(2-(3-Fluoro-4-methylphenyl)pyridin-3-yl)quinazolin-4-amine]",4.94
2,"Cc1cc(-c2ncccc2-c2ccc3c(cnn3C)c2)ccc1F [Compound 145, 5-(2-(4-Fluoro-3-methylphenyl)pyridin-3-yl)-1-methyl-1H-indazole]",5.95
3,"FC(F)(F)c1cccc(-c2ncccc2-c2ccc3ncc(N4CCCC4)n3c2)c1 [compound 564, 3-(Pyrrolidin-1-yl)-6-(2-(3-(trifluoromethyl)phenyl)pyridin-3-yl)imidazo[1,2-a]pyridine]",4.74
4,"Cc1cc(-c2ncccc2-c2ccc3ncnc(NC4CCCC4)c3c2)ccc1F [compound 405, N-Cyclopentyl-6-(2-(4-fluoro-3-methylphenyl)pyridin-3-yl)quinazolin-4-amine]",4.97
5,"Cc1cc(-c2ncc(NCc3cccnc3)cc2-c2ccc3nccnc3c2)ccc1F [compound 244, 6-(4-Fluoro-3-methylphenyl)-N-(pyridin-3-ylmethyl)-5-(quinoxalin-6-yl)pyridin-3-amine]",6.10
6,"Cc1cc(-c2ncccc2-c2ccc3ncc(C(=O)NC4CCN(C)CC4)n3c2)ccc1F [compound 592, 6-(2-(4-Fluoro-3-methylphenyl)pyridin-3-yl)-N-(1-methylpiperidin-4-yl)imidazo[1,2-a]pyridine-3-carboxamide]",6.69
7,"c1cc(-c2ncccc2-c2ccc3ncc(CN4CCOCC4)n3c2)cc(C2CC2)c1 [compound 571, 4-((6-(2-(3-Cyclopropylphenyl)pyridin-3-yl)imidazo[1,2-a]pyridin-3-yl)methyl)morpholine]",5.14
8,"Cc1cc(-c2ncccc2-c2cc(C(=O)O)c3[nH]ncc3c2)ccc1F [compound 195, 5-(2-(4-Fluoro-3-methylphenyl)pyridin-3-yl)-1H-indazole-7-carboxylic acid]",5.02
9,"CC(=O)c1cnc2ccc(-c3cccnc3-c3cccc(C4CC4)c3)cn12 [compound 588, 1-(6-(2-(3-Cyclopropylphenyl)pyridin-3-yl)imidazo[1,2-a]pyridin-3-yl)ethan-1-one]",6.50
10,"Cc1cc(-c2ncccc2-c2ccc3ncc(CN4CCOCC4)n3c2)ccc1F [compound 569, 4-((6-(2-(4-Fluoro-3-methylphenyl)pyridin-3-yl)imidazo[1,2-a]pyridin-3-yl)methyl)morpholine]",5.27
11,"Cc1cccc(-c2ncccc2-c2ccc3[nH]ncc3c2)n1 [compound 116, 5-(2-(6-Methylpyridin-2-yl)pyridin-3-yl)-1H-indazole]",7.49
12,"Cc1cc(-c2ncccc2-c2ccc3ncc(C(=O)NCCCN4CCN(C)CC4)n3c2)ccc1F [compound 591, 6-(2-(4-Fluoro-3-methylphenyl)pyridin-3-yl)-N-(3-(4-methylpiperazin-1-yl)propyl)imidazo[1,2-a]pyridine-3-carboxamide]",6.48
13,"CCOCCCn1cnc2ccc(-c3cccnc3-c3ccc(F)c(C)c3)cc21 [Compound 42, 1-(3-Ethoxypropyl)-6-(2-(4-fluoro-3-methylphenyl)pyridin-3-yl)-1H-benzo[d]imidazole]",4.98
14,"N#Cc1cccc(-c2ncccc2-c2ccc3ncc(C#N)n3c2)c1 [compound 627, 6-(2-(3-Cyanophenyl)pyridin-3-yl)imidazo[1,2-a]pyridine-3-carbonitrile]",5.90
15,"Fc1ccccc1-c1ncccc1-c1ccc2ncsc2c1 [compound 657, 6-(2-(2-Fluorophenyl)pyridin-3-yl)benzo[d]thiazole]",5.46
16,"Cc1cc(-c2ncccc2-c2ccc3ncc(C(=O)NCCCN4CCCCC4)n3c2)ccc1F [compound 611, 6-(2-(4-Fluoro-3-methylphenyl)pyridin-3-yl)-N-(3-(piperidin-1-yl)propyl)imidazo[1,2-a]pyridine-3-carboxamide]",6.94
17,"Nc1nc2ccc(-c3cccnc3-c3ccc(F)c(Cl)c3)nc2s1 [compound 302, 5-(2-(3-Chloro-4-fluorophenyl)pyridin-3-yl)thiazolo[5,4-b]pyridin-2-amine]",6.10
18,"Cc1cc(-c2ncccc2-c2ccc3cn[nH]c3c2)ccc1F [Compound 99, 6-(2-(4-Fluoro-3-methylphenyl)pyridin-3-yl)-1H-indazole]",6.05
19,"COc1cc(-c2ncccc2-c2cnc3[nH]ncc3c2)ccc1F [Compound 157, 5-(2-(4-Fluoro-3-methoxyphenyl)pyridin-3-yl)-1H-pyrazolo[3,4-b]pyridine]",5.81
20,"Cc1cccc(-c2ncccc2-c2cnc3cn[nH]c3c2)c1 [Compound 139, 6-(2-m-Tolylpyridin-3-yl)-1H-pyrazolo[4,3-b]pyridine]",5.47
21,"Oc1cccc(-c2ncccc2-c2ccc3[nH]ncc3c2)c1 [Compound 120, 3-(3-(1H-Indazol-5-yl)pyridin-2-yl)phenol]",6.44
22,"Nc1ncnc2ccc(-c3cccnc3-c3cc(F)c(F)c(F)c3)cc12 [compound 469, 6-(2-(3,4,5-Trifluorophenyl)pyridin-3-yl)quinazolin-4-amine]",5.80
23,"Cc1cc(-c2ncc(NCc3ccc(N4CCC(O)CC4)cc3)cc2-c2ccc3ncsc3c2)ccc1F [compound 374, 1-(4-(((5-(Benzo[d]thiazol-6-yl)-6-(4-fluoro-3-methylphenyl)pyridin-3-yl)amino)methyl)phenyl)piperidin-4-ol]",6.31
24,"Cc1cc(F)ccc1-c1ncccc1-c1ccc2ncnc(N)c2c1 [compound 467, 6-(2-(4-Fluoro-2-methylphenyl)pyridin-3-yl)quinazolin-4-amine]",4.91
25,"Cc1cc(-c2ncccc2-c2ccc3ccncc3c2)ccc1F [Compound 209, 7-(2-(4-Fluoro-3-methylphenyl)pyridin-3-yl)isoquinoline]",4.74
26,"Cc1cc(-c2ncccc2-c2ccc3ncc(N(C)C)n3c2)ccc1F [compound 551, 6-(2-(4-Fluoro-3-methylphenyl)pyridin-3-yl)-N,N-dimethylimidazo[1,2-a]pyridin-3-amine]",5.31
27,"Cc1cc(-c2ncccc2-c2ccc3ncc(C(=O)NCCN(C)C)n3c2)ccc1F [compound 607, N-(2-(Dimethylamino)ethyl)-6-(2-(4-fluoro-3-methylphenyl)pyridin-3-yl)imidazo[1,2-a]pyridine-3-carboxamide]",6.15
28,"Cc1cc(-c2ncc(N)cc2-c2ccc3nccnc3c2)ccc1F [compound 239, 6-(4-Fluoro-3-methylphenyl)-5-(quinoxalin-6-yl)pyridin-3-amine]",6.57
29,"Cc1cc(-c2ncccc2-c2ccc3ncnc(NCCC4CCN(C)CC4)c3c2)ccc1F [compound 422, 6-(2-(4-Fluoro-3-methylphenyl)pyridin-3-yl)-N-(2-(1-methylpiperidin-4-yl)ethyl)quinazolin-4-amine]",5.89
30,"COc1cc(-c2ncccc2-c2ccc3[nH]ncc3c2)ccc1F [Compound 124, 5-(2-(4-Fluoro-3-methoxyphenyl)pyridin-3-yl)-1H-indazole]",6.26
